# Experimental data: patent publication US20050221422A1, “Novel galactose transferases, peptides thereof and nucleic acid encoding the same” (priority 2002, published 2005)
# Ends that are not written are not given here. T(GalNAc) = N-acetylgalactosamine-glycosylated threonine
# Assays:
# [1] = target: T1, C1Gal-T3 (Homo sapiens, UniProt P0DN25); assay: Galactose transferring activity of C1Gal-T3 recombinant enzyme on N-acetylgalactosaminyl peptides; assay type: biochemical; details: C1Gal-T3 recombinant enzyme expressed in COS-1 cells as enzyme source
# T1 construct: a carboxyl terminal region (enzyme activity region) minus the transmembrane region at the amino terminus; preprotrypsin secretion signal (N); made in house; host or cells: COS-1 cells, transient transfection with pFLAG-C1Gal-T3; purified from culture supernatant on anti-FLAG M1 agarose
# T1 sequence (P0DN25 30-315 limits assumed): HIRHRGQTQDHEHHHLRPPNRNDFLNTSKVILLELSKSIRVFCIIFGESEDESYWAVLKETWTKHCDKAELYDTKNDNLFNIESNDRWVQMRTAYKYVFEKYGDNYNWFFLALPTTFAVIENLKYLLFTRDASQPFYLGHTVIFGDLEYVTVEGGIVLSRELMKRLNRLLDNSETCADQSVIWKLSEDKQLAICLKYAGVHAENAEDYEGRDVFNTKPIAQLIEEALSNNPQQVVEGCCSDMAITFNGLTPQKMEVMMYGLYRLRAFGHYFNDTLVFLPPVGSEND
# Method: The reaction solution (parentheses indicate final concentrations) comprised acceptor substrate (5 pmol), MES buffer (pH 6.5) (100 mM), MnCl2 (20 mM), ATP (2 mM), and UDP-Gal (0.5 mM). 5 μl of […] enzyme source was added to this reaction solution, which was then brought to a total volume of 20 μl by adding H2O.
# The above reaction mixture was reacted at 37° C. for eight hours. After completion of the reaction, 60 μl of H2O was added, and the mixture was gently centrifuged to acquire the supernatant. This supernatant was purified through an Ultra Free MC Column (Millipore), and 30 μl of thus-purified solution was analyzed using high-performance liquid chromatography (HPLC). CAPCELL PAK C18 UG120 (Shiseido) was used as the column, 0.1% trifluoroacetic acid was used as the separation buffer, and the elution was carried out over an acetonitrile concentration gradient of 15-30%. The flow rate was 1 ml/minute.
# Galactose transferring activity was measured using the C1Gal-T3 recombinant enzyme expressed in COS-1 cells as an enzyme source, and using the N-acetylgalactosaminyl peptides used in Example 5 as acceptor substrates.
# [2] = test system: C1Gal-T2; assay: Screening for acceptor substrate of C1Gal-T2 (UDP-[14C]-Gal transfer, TLC, LSC-C1Gal-T2 cell extract); assay type: biochemical, human; details: LSC-C1Gal-T2 cell extract as enzyme source; acceptor substrate 10 nmol; 37° C. for two hours
# Method: The reaction system below was used to investigate C2 acceptor substrates. To investigate whether pNp-α-GalNAc or pNp-β-GalNAc (both from Sigma) functioned as acceptors, each was used as an “acceptor substrate” in the following reaction solution:
# The reaction solution (the parentheses show final concentrations) comprised acceptor substrate (10 nmol), HEPES buffer (pH 7.4) (14 mM), MnCl2 (12.5 mM), UDP-Gal (250 μM), and UDP-[^14C]-Gal (175 nCi). 5 μl of enzyme solution was added to this reaction solution, followed by the addition of H2O to a total volume of 20 μl. The enzyme solution was prepared by suspending cells (5×10^6 cells) in 50 ml of cell lysing buffer (HEPES buffer (pH 7.4) (20 mM), NaCl (154 mM) and TritonX-100 (1%)), incubating at 4° C. for 15 minutes in a water bath type ultrasonic homogenizer, centrifuging, and then obtaining the supernatant for the enzyme solution. The aforementioned reaction mixture was reacted at 37° C. for two hours. Following completion of the reaction, 200 μl of H2O was added to the mixture, which was gently centrifuged to obtain the supernatant. […] After drying the plate, the amount of radioactivity taken up by the product was measured using the Bio Image Analyzer FLA3000 (Fuji Photo Film).
Molecule,galactose transferring activity [1],reaction as acceptor substrate (galactose transfer from UDP-Gal) [2]
"VPST(GalNAc)PPTPSPSTPPTPSPS ({Val-Pro-Ser-T(GalNAc)}-PPTPSPSTPPTPSPS) [4-GalNAc-HP, human IgA1 hinge peptide with GalNAc on the 4th residue]",could be confirmed,
CC(=O)N[C@H]1[C@@H](Oc2ccc([N+](=O)[O-])cc2)O[C@H](CO)[C@H](O)[C@@H]1O [pNp-α-GalNAc],,reacted strongly
CC(=O)N[C@H]1[C@H](Oc2ccc([N+](=O)[O-])cc2)O[C@H](CO)[C@H](O)[C@@H]1O [pNp-β-GalNAc],,did not react
